Laboratory results from patent publication US20260001844A1, “COMPOUNDS AND METHODS FOR THE TREATMENT AND PREVENTION OF HIV” (priority 2022, published 2026).
Read-outs that look alike come from different tables or passages of the source.

Legend:
[1] = system: HIV-1AD8 infected primary CD4+ T cells; experiment: ADCC FACS-based assay with HIV+ plasma, HIV-1AD8 infected cells; format: cell-based, human; settings: 50 μM compound; plasma 1:1000
[2] = system: HIV-1JRFL infected primary CD4+ T cells; experiment: Anti-CoRBS 17b mAb binding to infected cells (flow cytometry), HIV-1JRFL; format: cell-based, human; settings: 50 μM compound; p24+ cells
Method: (§1) FIG. 4. Anti-CoRBS Ab binding. Anti-CoRBS Ab-17b binding to (A) HIV-1CH58TF, (B) HIV-1JRFL (C) or HIV-1AD8 infected primary CD4+ T cells was done in the presence of 50 μM of the indicated CD4mcs or the same volume of vehicle (DMSO). The median fluorescence intensity (MFI) of 17b binding is reported for the productively-infected cell (p24+) population. Data shown are the mean±SD of at least three independent experiments. Statistical significance was evaluated using an un-paired t test (*, p<0.05; **, p<0.01; ***, p<0.001; ****, p<0.0001; ns, not significant).
The ability of the compounds to expose the co-receptor binding site (CoRBS) were tested by measuring binding of the anti-CoRBS 17b mAb to infected cells. Briefly, primary CD4+ T cells were infected with HIV-1CH58TF, HIV-1JRFL or HIV-1AD8. Two days later, infected cells were co-incubated with 50 μM (+)-BNM-III-170, (S)-MCG-IV-210, TFH-070-A6, TFH-I-116-D1, ZXC-I-090, ZXC-I-092, DL-I-101 (ZXC-I-257), and DL-I-102 (ZXC-I-258) or the same volume of DMSO, and the 17b interaction was measured by flow cytometry after intracellular anti-p24 to identify the infected cell population. […] Defined by the sensitivity to anti-body-mediated neutralization (tier-1, 2 and 3), Tier-2 viruses (HIV-1JRFL and HIV-1AD8) are representative of biologically relevant circulating HIV-1 strains which are moderately neutralized by neutralizing antibodies. Weak neutralizing antibodies, or first generation CD4mc, prevent the infection of viruses from tier-1 but not those from tier-2 or tier-3. […] A similar phenotype was observed when using HIV-1AD8 infected cells (FIG. 4C).
The anti-CoRBS 17b mAb was used alone or in combination with different com-pounds for cell-surface staining. Plasma from different HIV-infected donors were collected, heat-inactivated and conserved. Alexa Fluor 647 conjugated Goat anti-human antibodies (Invitrogen, Waltham, MA, USA) were used as secondary Abs.
Cell-surface staining was performed. Primary CD4 T cells were isolated from healthy donors and infected with HIV-1CH58TF, HIV-1JRFL or HIV-1AD8. Binding of HIV-1-infected cells by plasma (1:1000 dilution) or 17b mAb (5 μg/mL) in the presence or absence of 50 μM compounds was performed 48 h after infection. Cells were then incubated at 37° C. for 1 h followed by adding anti-human Alexa Fluor-647 (Invitrogen) secondary Abs for 20 min. Cells were then stained intracellularly for HIV-1 p24, using the Cytofix/Cytoperm Fixation/Permeabilization Kit (BD Biosciences, Mississauga, ON, Canada) and the fluorescent anti-p24 mAb (PE-conjugated anti-p24, clone KC57; Beckman Coulter/Immunotech). The percentage of infected cells (p24+ cells) was determined by gating the live cell population on the basis of the Aqua-Vivid viability dye staining. Samples were analyzed on an LSRII cytometer (BD Biosciences), and data analysis was performed using FlowJo vX.0.7 (Tree Star, Ashland, OR, USA).

VSV-G pseudovirus = experiment: microbe, parasite or virus in culture; format: cell-based; settings: read-out: IC50 VSV-G pseudovirus
[3] = system: HIV-1AD8 infected primary CD4+ T cells; experiment: Cell-surface staining with HIV+ plasma, HIV-1AD8 infected cells; settings: 50 μM compound; plasma 1:1000
[4] = system: HIV-1CH58TF infected primary CD4+ T cells; experiment: ADCC FACS-based assay with HIV+ plasma, HIV-1CH58TF infected cells; format: cell-based, human; settings: for Susceptibility of HIV-1CH58TF infected cells to ADCC mediated by HIV+ plasma (in words): 50 μM compound, plasma 1:1000; for % ADCC (CH58): Table 1, approximate values, HIV+ plasma 1/1,000, compound 50 μM
HIV-1AD8 = experiment: Viral neutralization in TZM-bl cells (luciferase), HIV-1AD8; format: cell-based; settings: read-out: IC50 HIV-1AD8
[5] = system: HIV-1JRFL infected primary CD4+ T cells; experiment: ADCC FACS-based assay with HIV+ plasma, HIV-1JRFL infected cells; format: cell-based, human; settings: for % ADCC (JR-FL): Table 1, approximate values
HIV-1JRFL = experiment: Viral neutralization in TZM-bl cells (luciferase), HIV-1JRFL; format: cell-based
[6] = system: HIV-1JRFL infected primary CD4+ T cells; experiment: Cell-surface staining with HIV+ plasma, HIV-1JRFL infected cells; format: cell-based, human; settings: 50 μM compound; plasma 1:1000
HIV-1CH58TF = experiment: Viral neutralization in TZM-bl cells (luciferase), HIV-1CH58TF; format: cell-based
[7] = system: HIV-1CH58TF infected primary CD4+ T cells; experiment: Cell-surface staining with HIV+ plasma, HIV-1CH58TF infected cells; format: cell-based, human; settings: 50 μM compound; plasma 1:1000
[8] = system: HIV-1CH58TF infected primary CD4+ T cells; experiment: Anti-CoRBS 17b mAb binding to infected cells (flow cytometry), HIV-1CH58TF; format: cell-based, human; settings: 50 μM compound; p24+ cells
Method: as §1
The ability of the compounds to expose the co-receptor binding site (CoRBS) were tested by measuring binding of the anti-CoRBS 17b mAb to infected cells. […] Two days later, infected cells were co-incubated with 50 μM (+)-BNM-III-170, (S)-MCG-IV-210, TFH-070-A6, TFH-I-116-D1, ZXC-I-090, ZXC-I-092, DL-I-101 (ZXC-I-257), and DL-I-102 (ZXC-I-258) or the same volume of DMSO, and the 17b interaction was measured by flow cytometry after intracellular anti-p24 to identify the infected cell population. […]
Cell-surface staining was performed. […] The percentage of infected cells (p24+ cells) was determined by gating the live cell population on the basis of the Aqua-Vivid viability dye staining. Samples were analyzed on an LSRII cytometer (BD Biosciences), and data analysis was performed using FlowJo vX.0.7 (Tree Star, Ashland, OR, USA).

[9] = Human immunodeficiency virus 1, TZM-bl
[10] = Human immunodeficiency virus 1, TZM-bl, read-out: IC50 (JR-FL)
[11] = Human immunodeficiency virus 1, TZM-bl, read-out: IC50 (CH58)
[12] = Human immunodeficiency virus 1, TZM-bl, read-out: IC50 HIV-1JRFL
[13] = Table 2, average ± SD of at least three independent experiments, TZM-bl cells, read-out: IC50 HIV-1CH58TF

## NCC(=O)N1CCN(C(=O)N2C[C@H](CO)C[C@H](C(=O)Nc3ccc(Cl)c(F)c3)C2)CC1 (racemic) [DL-I-101, (3S,5R)-N-(4-chloro-3-fluorophenyl)-1-(4-glycylpiperazine-1-carbonyl)-5-(hydroxymethyl)piperidine-3-carboxamide]
[1]
  ADCC against HIV-1AD8 infected cells (in words): translated into ADCC
[2]
  Exposure of the co-receptor binding site (17b mAb binding), HIV-1JRFL infected cells: successfully exposed the CoRBS
VSV-G pseudovirus; Pseudovirus, TZM-bl
  IC50: > 100 µM
[3]
  HIV+ plasma binding to HIV-1AD8 infected cells: did
[4]
  Susceptibility of HIV-1CH58TF infected cells to ADCC mediated by HIV+ plasma (in words): also the case

## O=C(O)CN1CCN(C(=O)N2C[C@H](CO)C[C@H](C(=O)Nc3ccc(Cl)c(F)c3)C2)CC1 (racemic) [DL-I-102, 2-(4-((3S,5R)-3-((4-chloro-3-fluorophenyl)carbamoyl)-5-(hydroxymethyl)piperidine-1-carbonyl)piperazin-1-yl)acetic acid]
[2]
  Exposure of the co-receptor binding site (17b mAb binding), HIV-1JRFL infected cells: successfully exposed the CoRBS
VSV-G pseudovirus; Pseudovirus, TZM-bl
  IC50: > 100 µM
[4]
  Susceptibility of HIV-1CH58TF infected cells to ADCC mediated by HIV+ plasma (in words): also the case

## C[C@@H]1CN(C(=O)N2CCC[C@H](C(=O)Nc3ccc(Cl)c(F)c3)C2)C[C@H](C)N1C (stereo in doubt) [TFH-I-116-D1]
HIV-1AD8; [9]
  IC50: 4.8 ± 1.7 µM
[1]
  ADCC against HIV-1AD8 infected cells (in words): translated into ADCC
[2]
  Exposure of the co-receptor binding site (17b mAb binding), HIV-1JRFL infected cells: successfully exposed the CoRBS
[5]; 50 μM compound, plasma 1:1000
  ADCC against HIV-1JRFL infected cells compared to (S)-MCG-IV-210 (in words): not translated into enhanced ADCC
[5]
  % ADCC (JR-FL): 3%
VSV-G pseudovirus; Pseudovirus, TZM-bl
  IC50: > 100 µM
HIV-1JRFL; [10]
  IC50: 20 µM
HIV-1JRFL; Human immunodeficiency virus 1, TZM-bl, read-out: IC50, neutralization of HIV-1JRFL (text, unit printed M)
  IC50: 43.8 µM
[6]
  Recognition of HIV-1JRFL infected cells by antibodies from PLWH (HIV+ plasma): recognized infected cells
[3]
  HIV+ plasma binding to HIV-1AD8 infected cells: did
[4]
  Susceptibility of HIV-1CH58TF infected cells to ADCC mediated by HIV+ plasma (in words): also the case
  % ADCC (CH58): 5%
HIV-1CH58TF; [11]
  IC50: < 1 µM
HIV-1CH58TF; Human immunodeficiency virus 1, TZM-bl, read-out: IC50 HIV-1CH58TF
  IC50: 0.065 ± 0.01 µM

## CN1CCN(C(=O)N2C[C@H](CN)C[C@H](C(=O)Nc3ccc(Cl)c(F)c3)C2)CC1 (stereo in doubt) [ZXC-I-090]
[5]
  % ADCC (JR-FL): ~2%
VSV-G pseudovirus; Pseudovirus, TZM-bl
  IC50: > 100 µM
HIV-1JRFL; [10]
  IC50: 18 µM
[4]
  Susceptibility of HIV-1CH58TF infected cells to ADCC mediated by HIV+ plasma (in words): also the case
  % ADCC (CH58): ~3%
HIV-1CH58TF; [11]
  IC50: ~50 µM

## C[C@@H]1CN(C(=O)N2C[C@H](CN)C[C@H](C(=O)Nc3ccc(Cl)c(F)c3)C2)C[C@H](C)N1C (stereo in doubt) [ZXC-I-092]
[2]
  Exposure of the co-receptor binding site (17b mAb binding), HIV-1JRFL infected cells: successfully exposed the CoRBS
[5]
  % ADCC (JR-FL): ~2%
VSV-G pseudovirus; Pseudovirus, TZM-bl
  IC50: > 100 µM
HIV-1JRFL; [10]
  IC50: 28 µM
HIV-1JRFL; [12]
  IC50: 54.2 ± 22.8 µM
[4]
  Susceptibility of HIV-1CH58TF infected cells to ADCC mediated by HIV+ plasma (in words): also the case
  % ADCC (CH58): ~3%
HIV-1CH58TF; [11]
  IC50: ~50 µM
HIV-1CH58TF; [13]
  IC50: 0.75 ± 0.12 µM

## CNCc1ccc2c(c1)C[C@H](CN=C(N)N)[C@H]2NC(=O)C(=O)Nc1ccc(Cl)c(F)c1.O=C(O)C(F)(F)F.O=C(O)C(F)(F)F [BNM-III-170, reference compound]
HIV-1AD8; Table 2, average ± SD of at least three independent experiments, TZM-bl cells
  IC50: 3.75 ± 1.3 µM
VSV-G pseudovirus
  IC50: > 100 µM
HIV-1JRFL; TZM-bl neutralization assay, read-out: IC50, neutralization of HIV-1JRFL
  IC50: 13.5 µM
[4]
  Susceptibility of HIV-1CH58TF infected cells to ADCC mediated by HIV+ plasma (in words): enhanced
[7]
  Recognition of HIV-1CH58TF infected cells by HIV+ plasma: enhanced the recognition
HIV-1CH58TF; [13]
  IC50: 0.033 ± 0.01 µM

## NCCNC(=O)N1CCC[C@H](C(=O)Nc2ccc(Cl)c(F)c2)C1 [MCG-IV-210, reference compound]
[8]
  Exposure of the co-receptor binding site (17b mAb binding), HIV-1CH58 infected cells: exposed the CoRBS
HIV-1AD8; [9]
  IC50: > 100 µM
VSV-G pseudovirus; Pseudovirus, TZM-bl
  IC50: > 100 µM
HIV-1JRFL; [12]
  IC50: > 100 µM
HIV-1JRFL; TZM-bl neutralization assay
  Inhibition of viral infection by HIV-1JRFL (in words): unable to inhibit viral infection
[3]
  HIV+ plasma binding to HIV-1AD8 infected cells: did not promote HIV+ plasma binding
[4]
  Susceptibility of HIV-1CH58TF infected cells to ADCC mediated by HIV+ plasma (in words): enhanced
[7]
  Recognition of HIV-1CH58TF infected cells by HIV+ plasma: enhanced the recognition

## CN1CCN(C(=O)N2CCC[C@H](C(=O)Nc3ccc(Cl)c(F)c3)C2)CC1 [TFH-I-070-A6, (S)-4-(3-((4-chloro-3-fluorophenyl)carbamoyl)piperidine-1-carbonyl)-1-methylpiperazin-1-ium, 2,2,2-trifluoro-acetate]
[2]
  Exposure of the co-receptor binding site (17b mAb binding), HIV-1JRFL infected cells: successfully exposed the CoRBS
[5]
  % ADCC (JR-FL): 3%
VSV-G pseudovirus; Pseudovirus, TZM-bl
  IC50: > 100 µM
HIV-1JRFL; [10]
  IC50: 80 µM
HIV-1JRFL; [12]
  IC50: 67.2 ± 30 µM
[3]
  HIV+ plasma binding to HIV-1AD8 infected cells: did
[4]
  Susceptibility of HIV-1CH58TF infected cells to ADCC mediated by HIV+ plasma (in words): also the case
  % ADCC (CH58): 5%
HIV-1CH58TF; [11]
  IC50: 30 µM
